{
  "source": "paper PMC9120017",
  "about": "“Inhibition mechanism of the chloride channel TMEM16A by the pore blocker 1PBC” (Nature Communications, 2022)",
  "target": "T1, mouse TMEM16A mutant T539A (Mus musculus, UniProt Q8BHY3, T539A)",
  "T1 construct": "expressed in transfected cells; host or cells: HEK293T",
  "T1 sequence (Q8BHY3 1-960 T539A)": "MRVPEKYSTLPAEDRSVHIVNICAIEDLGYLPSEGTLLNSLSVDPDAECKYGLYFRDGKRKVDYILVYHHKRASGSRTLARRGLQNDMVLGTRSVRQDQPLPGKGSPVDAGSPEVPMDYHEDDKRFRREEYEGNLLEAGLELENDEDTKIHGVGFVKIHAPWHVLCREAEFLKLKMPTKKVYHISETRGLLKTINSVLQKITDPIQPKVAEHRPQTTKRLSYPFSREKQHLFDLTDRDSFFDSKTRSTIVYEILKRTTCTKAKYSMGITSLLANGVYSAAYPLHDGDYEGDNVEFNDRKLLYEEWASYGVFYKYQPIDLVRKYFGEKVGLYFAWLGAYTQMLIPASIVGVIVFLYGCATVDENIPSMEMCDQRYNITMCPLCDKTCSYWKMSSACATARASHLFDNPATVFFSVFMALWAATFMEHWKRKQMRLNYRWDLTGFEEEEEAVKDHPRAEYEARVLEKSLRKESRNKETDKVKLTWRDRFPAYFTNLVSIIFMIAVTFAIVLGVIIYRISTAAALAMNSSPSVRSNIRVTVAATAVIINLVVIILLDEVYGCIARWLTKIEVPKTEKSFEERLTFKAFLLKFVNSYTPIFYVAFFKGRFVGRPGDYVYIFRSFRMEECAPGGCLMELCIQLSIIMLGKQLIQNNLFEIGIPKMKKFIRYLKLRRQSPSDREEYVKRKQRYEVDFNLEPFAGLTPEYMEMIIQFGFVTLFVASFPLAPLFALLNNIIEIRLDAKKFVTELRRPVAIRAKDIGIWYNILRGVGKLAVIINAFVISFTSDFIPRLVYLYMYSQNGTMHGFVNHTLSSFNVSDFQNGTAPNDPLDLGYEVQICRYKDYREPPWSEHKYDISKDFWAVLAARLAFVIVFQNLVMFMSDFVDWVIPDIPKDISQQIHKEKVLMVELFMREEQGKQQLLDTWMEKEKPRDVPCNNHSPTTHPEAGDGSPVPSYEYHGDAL",
  "test": "Inside-out patch recording of 1PBC block, mutant T539A",
  "format": "cell-based",
  "conditions": "for remaining activity at 100 µM: 100 µM 1PBC",
  "procedure": "HEK293T cells (ATCC CRL-1573) were maintained in Dulbecco’s modified Eagle’s medium (DMEM; Sigma-Aldrich) supplemented with 10 U ml^−1 penicillin, 0.1 mg ml^−1 streptomycin (Sigma-Aldrich), 2 mM L-glutamine (Sigma-Aldrich), and 10% FBS (Sigma-Aldrich) in a humidified atmosphere containing 5% CO2 at 37 °C. HEK293S GnTI^− cells (ATCC CRL-3022) were maintained in HyClone HyCell TransFx-H medium (GE Healthcare) supplemented with 10 U ml^−1 penicillin, 0.1 mg ml^−1 streptomycin, 4 mM L-glutamine, 0.15% poloxamer 188 (Sigma-Aldrich), and 1% FBS in an atmosphere containing 5% CO2 at 185 rpm at 37 °C. The ac splice variant of mouse TMEM16A (UniProt ID: Q8BHY3), mouse TMEM16B (UniProt ID: Q8CFW1), or mouse TMEM16F (UniProt ID: Q6P9J9) bearing a 3C cleavage site, a Venus YFP, a Myc tag, and a Streptavidin-binding peptide (SBP) downstream of the open reading frame in a modified pcDNA3.1 vector (Invitrogen) were used as described previously[21],[31]. Mutations were introduced using a modified QuikChange method[58] and were verified by sequencing.\nHEK293T cells were transfected with 3–4 μg DNA per 6 cm Petri dish using the calcium phosphate co-precipitation method and were used within 24–96 h after transfection. Recordings were performed on inside-out patches excised from HEK293T cells expressing the construct of interest. Patch pipettes were pulled from borosilicate glass capillaries (O.D. 1.5 mm, I.D. 0.86 mm, Sutter Instrument) and were fire-polished with a microforge (Narishige) before use. Pipette resistance was typically 3–8 MΩ when filled with the recording solutions detailed below. Seal resistance was typically 4 GΩ or higher. Voltage-clamp recordings were made using Axopatch 200B, Digidata 1550, and Clampex 10.7 (Molecular Devices). Analog signals were filtered with the in-built 4-pole Bessel filter at 10 kHz and were digitized at 20 kHz. Solution exchange was achieved using a gravity-fed system through a theta glass pipette mounted on an ultra-fast piezo-driven stepper (Siskiyou). […] All recordings were performed at 20 °C.\nA symmetrical ionic condition was used throughout. Stock solution with Ca^2+-EGTA contained 150 mM NaCl, 5.99 mM Ca(OH)2, 5 mM EGTA, and 10 mM HEPES at pH 7.40. Stock solution with EGTA contained 150 mM NaCl, 5 mM EGTA, and 10 mM HEPES at pH 7.40. Free Ca^2+ concentrations were adjusted by mixing the stock solutions at the required ratios calculated using the WEBMAXC program (http://web.stanford.edu/~cpatton/webmaxcS.htm). Patch pipettes were filled with the stock solution with Ca^2+-EGTA, which has a free Ca^2+ concentration of 1 mM. 1PBC (ChemBridge) stock was reconstituted in anhydrous DMSO (Sigma-Aldrich) at 100 mM and stored at −20 °C. Working solutions with 1PBC were prepared by serial dilution. Unless otherwise stated, experiments were performed at a saturating Ca^2+ concentration as shown in Supplementary Table 1 and the primary data were corrected for current rundown as described previously[21],[25].\nConcentration-response relations, obtained from the ratio of the I-V plots before and after the application of the blocker, were fitted to the Hill equation,1 I/Imax=1/1+IC50/[blocker]^h where I/Imax is the normalized current responses, IC50 defines the concentration at which inhibition is at its half-maximum, and h is the Hill coefficient.",
  "note": "Where two headings read alike, the source gives them in different places.",
  "data": [
    {"compound": "N#Cc1c(C(F)(F)F)cc(O)n2c1nc1ccccc12", "note": "[1PBC]", "values": [
      {"measurement": "IC50", "setting": "0 mV, 2 µM Ca2+", "value": 14.9, "unit": "µM"},
      {"measurement": "remaining activity at 3 µM", "setting": "3 µM 1PBC, +80 mV, saturating Ca2+ (2 µM), read-out: I/Imax", "value": 77.1, "unit": "%"},
      {"measurement": "remaining activity at 3 µM", "setting": "3 µM 1PBC, -80 mV, saturating Ca2+ (2 µM), read-out: I/Imax", "value": 91.4, "unit": "%"},
      {"measurement": "remaining activity at 10 µM", "setting": "10 µM 1PBC, +80 mV, saturating Ca2+ (2 µM), read-out: I/Imax", "value": 45.4, "unit": "%"},
      {"measurement": "remaining activity at 10 µM", "setting": "10 µM 1PBC, -80 mV, saturating Ca2+ (2 µM), read-out: I/Imax", "value": 71.2, "unit": "%"},
      {"measurement": "remaining activity at 30 µM", "setting": "30 µM 1PBC, +80 mV, saturating Ca2+ (2 µM), read-out: I/Imax", "value": 23.5, "unit": "%"},
      {"measurement": "remaining activity at 30 µM", "setting": "30 µM 1PBC, -80 mV, saturating Ca2+ (2 µM), read-out: I/Imax", "value": 49.4, "unit": "%"},
      {"measurement": "remaining activity at 100 µM", "setting": "+80 mV, saturating Ca2+ (2 µM), read-out: I/Imax", "value": 8.95, "unit": "%"},
      {"measurement": "remaining activity at 100 µM", "setting": "-80 mV, saturating Ca2+ (2 µM), read-out: I/Imax", "value": 25, "unit": "%"},
      {"measurement": "remaining activity at 3 µM", "setting": "1PBC 3, 0 mV, read-out: fraction of unblocked current", "value": 85.3, "unit": "%"},
      {"measurement": "remaining activity at 3 µM", "setting": "1PBC 3, 20 mV, read-out: fraction of unblocked current", "value": 83.3, "unit": "%"},
      {"measurement": "remaining activity at 3 µM", "setting": "1PBC 3, 40 mV, read-out: fraction of unblocked current", "value": 80.1, "unit": "%"},
      {"measurement": "remaining activity at 3 µM", "setting": "1PBC 3, 60 mV, read-out: fraction of unblocked current", "value": 78.3, "unit": "%"},
      {"measurement": "remaining activity at 3 µM", "setting": "1PBC 3, 80 mV, read-out: fraction of unblocked current", "value": 77.1, "unit": "%"},
      {"measurement": "remaining activity at 3 µM", "setting": "1PBC 3, 100 mV, read-out: fraction of unblocked current", "value": 77.2, "unit": "%"},
      {"measurement": "remaining activity at 3 µM", "setting": "1PBC 3, 120 mV, read-out: fraction of unblocked current", "value": 77.7, "unit": "%"},
      {"measurement": "remaining activity at 3 µM", "setting": "1PBC 3, 140 mV, read-out: fraction of unblocked current", "value": 79.8, "unit": "%"},
      {"measurement": "remaining activity at 3 µM", "setting": "1PBC 3, -20 mV, read-out: fraction of unblocked current", "value": 87.2, "unit": "%"},
      {"measurement": "remaining activity at 3 µM", "setting": "1PBC 3, -40 mV, read-out: fraction of unblocked current", "value": 88.4, "unit": "%"},
      {"measurement": "remaining activity at 3 µM", "setting": "1PBC 3, -60 mV, read-out: fraction of unblocked current", "value": 90, "unit": "%"},
      {"measurement": "remaining activity at 3 µM", "setting": "1PBC 3, -80 mV, read-out: fraction of unblocked current", "value": 91.4, "unit": "%"},
      {"measurement": "remaining activity at 3 µM", "setting": "1PBC 3, -100 mV, read-out: fraction of unblocked current", "value": 92.2, "unit": "%"},
      {"measurement": "remaining activity at 3 µM", "setting": "1PBC 3, -120 mV, read-out: fraction of unblocked current", "value": 93.2, "unit": "%"},
      {"measurement": "remaining activity at 3 µM", "setting": "1PBC 3, -140 mV, read-out: fraction of unblocked current", "value": 93.5, "unit": "%"},
      {"measurement": "remaining activity at 10 µM", "setting": "1PBC 10, 0 mV, read-out: fraction of unblocked current", "value": 56.5, "unit": "%"},
      {"measurement": "remaining activity at 10 µM", "setting": "1PBC 10, 20 mV, read-out: fraction of unblocked current", "value": 53.9, "unit": "%"},
      {"measurement": "remaining activity at 10 µM", "setting": "1PBC 10, 40 mV, read-out: fraction of unblocked current", "value": 50.2, "unit": "%"},
      {"measurement": "remaining activity at 10 µM", "setting": "1PBC 10, 60 mV, read-out: fraction of unblocked current", "value": 47.6, "unit": "%"},
      {"measurement": "remaining activity at 10 µM", "setting": "1PBC 10, 80 mV, read-out: fraction of unblocked current", "value": 45.4, "unit": "%"},
      {"measurement": "remaining activity at 10 µM", "setting": "1PBC 10, 100 mV, read-out: fraction of unblocked current", "value": 44.7, "unit": "%"},
      {"measurement": "remaining activity at 10 µM", "setting": "1PBC 10, 120 mV, read-out: fraction of unblocked current", "value": 45.3, "unit": "%"},
      {"measurement": "remaining activity at 10 µM", "setting": "1PBC 10, 140 mV, read-out: fraction of unblocked current", "value": 47, "unit": "%"},
      {"measurement": "remaining activity at 10 µM", "setting": "1PBC 10, -20 mV, read-out: fraction of unblocked current", "value": 59.1, "unit": "%"},
      {"measurement": "remaining activity at 10 µM", "setting": "1PBC 10, -40 mV, read-out: fraction of unblocked current", "value": 63.7, "unit": "%"},
      {"measurement": "remaining activity at 10 µM", "setting": "1PBC 10, -60 mV, read-out: fraction of unblocked current", "value": 67.6, "unit": "%"},
      {"measurement": "remaining activity at 10 µM", "setting": "1PBC 10, -80 mV, read-out: fraction of unblocked current", "value": 71.2, "unit": "%"},
      {"measurement": "remaining activity at 10 µM", "setting": "1PBC 10, -100 mV, read-out: fraction of unblocked current", "value": 73.9, "unit": "%"},
      {"measurement": "remaining activity at 10 µM", "setting": "1PBC 10, -120 mV, read-out: fraction of unblocked current", "value": 76.5, "unit": "%"},
      {"measurement": "remaining activity at 10 µM", "setting": "1PBC 10, -140 mV, read-out: fraction of unblocked current", "value": 78.6, "unit": "%"},
      {"measurement": "remaining activity at 30 µM", "setting": "1PBC 30, 0 mV, read-out: fraction of unblocked current", "value": 34.9, "unit": "%"},
      {"measurement": "remaining activity at 30 µM", "setting": "1PBC 30, 20 mV, read-out: fraction of unblocked current", "value": 31, "unit": "%"},
      {"measurement": "remaining activity at 30 µM", "setting": "1PBC 30, 40 mV, read-out: fraction of unblocked current", "value": 27.7, "unit": "%"},
      {"measurement": "remaining activity at 30 µM", "setting": "1PBC 30, 60 mV, read-out: fraction of unblocked current", "value": 25.4, "unit": "%"},
      {"measurement": "remaining activity at 30 µM", "setting": "1PBC 30, 80 mV, read-out: fraction of unblocked current", "value": 23.5, "unit": "%"},
      {"measurement": "remaining activity at 30 µM", "setting": "1PBC 30, 100 mV, read-out: fraction of unblocked current", "value": 22.5, "unit": "%"},
      {"measurement": "remaining activity at 30 µM", "setting": "1PBC 30, 120 mV, read-out: fraction of unblocked current", "value": 21.8, "unit": "%"},
      {"measurement": "remaining activity at 30 µM", "setting": "1PBC 30, 140 mV, read-out: fraction of unblocked current", "value": 22.4, "unit": "%"},
      {"measurement": "remaining activity at 30 µM", "setting": "1PBC 30, -20 mV, read-out: fraction of unblocked current", "value": 38.8, "unit": "%"},
      {"measurement": "remaining activity at 30 µM", "setting": "1PBC 30, -40 mV, read-out: fraction of unblocked current", "value": 42.4, "unit": "%"}
    ]}
  ]
}
